Measured values taken from patent US7473708B2, “Agents with leukotriene B4-like antiviral (enveloped RNA) activities” (priority 1996, dated 2009).
Entries after “also recorded” stand apart in the source; their conditions may differ.

Assays:
[1] = tested on: murine CMV (Smith strain); assay: CMV viral load in infected mice (plaque assay)
Description: Six week old BALB/c mice were infected by intravenous injection with 10^4 plaque forming units (PFU) of murine CMV (Smith strain). Mice were divided into two groups: the first group received a placebo while the second group was treated with 25 ng of LTB4, administered intravenously once a day starting on the day of infection. After 12 days of treatment, mice were sacrificed and the lungs and salivary glands harvested. The organs were homogenized, in 0.5 ml of culture medium, to liberate intracellular viral particles. After centrifugation, the cell free supernatants were tested for the presence of CMV particles by standard plaque assay technique. Briefly, serially diluted supernatants were added to a monolayer of mouse embryonic fibroblast cells (highly susceptible to CMV infection) for 1 hour at 37° C. after which the nonadsorbed virus were removed and the monolayer overlaid with 1.5% methylcellulose. After a 5-day incubation, the monolayers were fixed with formaldehyde and stained with violet crystal. The number of plaques, which represents areas of infection equivalent to one viral particle, were counted and the CMV titers in the lungs and salivary glands determined.

[2] = tested on: coronavirus strain HCoV-OC43; assay: Human coronavirus infection in lungs of mice; assay type: in vivo; settings: for coronavirus viral load in lungs, per mouse: day 6
Description: The antiviral effect of LTB4 in controlling pneumonia caused by coronavirus was evaluated in an in vivo model using C57BL/6 mice (8 day old). Mice were infected (n=6/group) intranasally with 10 μl of coronavirus suspension (10^4 PFU, strain HCoV-OC43). Twenty-four hours post-infection, mice were treated intranasally with a placebo or with varying doses of LTB4 (5 ng/dose or 50 ng/dose). Mice were treated once a day during 5 days, and were sacrificed and autopsied on day 6. Lungs of mice were surgically removed and the viral load was titrated on HRT-18 cell line.

EBV [3] = assay: Synthesis of EBV particles in B95-8 cells; settings: for inhibition of production of EBV particles (decrease of EBNA antigen positive cells): 14 days
Description: In order to evaluate the effects of LTB4 on the production of newly synthesized viral particles, B95-8 cells, in which EBV replicates, was cultured in the presence or absence of LTB4 (to the concentrations indicated in FIG. 3 at days 0, 5 and 10) during 14 days. The cells were grown in RPMI-1640 medium supplemented with 10% heat inactivated fetal bovine serum (FBS) . […] Viral titers were measured by ACIF test on PBMC and expressed in transforming units per ml (TFU/ml). PBMC were then infected with these different EBV preparations and the presence of EBNA was assessed by immunofluorescence (ACIF test).

HIV (93US151) = assay: HIV infection in vivo, SCID mice reconstituted with human PBMC
[4] = tested on: influenza virus (strain A/Pr/8/34); assay: Influenza infection in lungs of mice; assay type: in vivo; settings: LTB4 1, 10 and 100 ng/dose intranasal, days 1 to 5, day 6
Description: BALB/c mice (6-8 week old) were infected (n=6/group) by delivering 10 PFU of influenza virus (strain A/Pr/8/34) in the nasal cavity. On days 1 to 5 post-infection, mice were treated intranasally with a placebo or with varying doses of LTB4 (1, 10 and 100 ng/dose). On the 6th day post-infection, all mice were sacrificed and influenza viral loads in lungs were determined using the MDCK cell line.

EBV [5] = assay: Detection of Epstein-Barr Nuclear Antigen (EBNA) in EBV-infected PBMC (ACIF test); assay type: cell-based, human; settings: 100 nM LTB4, added days 0, 3, 6, 9; ten days of culture
Description: After ten days of culture, cells were harvested for determination of the presence of Epstein-Barr Nuclear Antigen (EBNA), a consequence of EBV infection. Preparation of cell smears, fixation and detection of EBNA by the anti-complement immunofluorescence (ACIF) test were carried out as described by Reedman B. M. and Klein G. (Int. J. Cancer, 1973, 11:499). Smears were prepared by spreading 50 μl of a concentrated suspension of washed cells (2×10^6/ml) on clean slides, air dried and fixed in cold acetone (−20° C.) during 10 minutes. Human serum (50 μl) from EBV seropositive donor was used as a source of complement. Slides were incubated at room temperature in a humid chamber during 45 minutes. Slides were then washed three times in phosphate buffer saline (PBS) and stained with 50 μl of fluorescein-5-isothiocyanate (FITC “Isomer I”)-conjugated goat IgG fraction anti-human complement C3 (Cappel Research Products, Durham, N.C.) during 60 minutes at room temperature in a humid chamber. Slides were washed in PBS (3 times), mounted in PBS:glycerol 1:1 and examined. Raji and U937 cells were used as positive and negative controls, respectively. The percentage of EBNA-positive cells was decreased by more than 55% with 30 nM LTB4, and by more than 70% with 100 nM LTB4 (FIG. 2). The results illustrated in FIG. 2 are representative of six (6) other experiments.
PBMC were infected with EBV and HSV-1 and treated or not with 100 nM of analogs of LTB4 such as 20-OH-LTB4, LTA3 methyl ester, 12(R)-HETE and 5(S), 15(S)-diHETE. After six days of culture, the presence of EBNA antigen (a consequence of EBV infection) was evaluated by the ACIF test, as described in Example I. Similarly, the presence of HSV-1 antigen in PBMC was evaluated by immunofluorescence using an antiserum obtained from a chronically infected donor as described above in section entitled “Detection of Specific HSV-1 Antigen”. […] The results illustrated in Table 1 are representative of three other experiments.

HIV-1 strain 89.6 = assay: HIV ex vivo model, human tonsillar tissue, p24 release; assay type: cell-based; settings: tonsil blocks, LTB4 0.01, 0.1 and 1 μM
Description: An ex vivo model that retains the cellular organization found in normal human lymphoid tissue was used. The selected lymphoid tissues were tonsils. […] Such an ex vivo model is used to study HIV pathogenesis and potency of antiviral agents such as AZT (Zidovudine) by many laboratories.
Human tonsillar tissues from two different individuals were removed during routine tonsillectomy and were received within five hours of excision. The tonsils were washed thoroughly with medium supplemented with antibiotics and then sectioned into 2-3 mm blocks. These tissue blocks were placed in culture medium at the air-liquid interface on the top surface of collagen sponge gels and were pretreated for 10 min with the indicated concentrations of LTB4 (0.01, 0.1 and 1 μM). Next, HIV-1 particles (400 TCID50 of HIV-1 strain 89.6) were applied at the top of each tissue block. The next day, the culture medium was completely removed and replaced with fresh medium supplemented with a final concentration of LTB4 (0.01, 0.1 and 1 μM). This step is necessary in order to remove unadsorbed and uninternalized virus particles. Productive HIV-1 infection was assessed every 3 to 4 days by measuring p24 in the culture medium using a viral core p24 antigen enzyme-linked immunosorbent assay. […]

HSV-1 strain E-377 = assay: HSV-1 infection in vivo, hairless mice
EBV, strain B95-8 = assay: EBV-induced clump formation in peripheral blood mononuclear cells; assay type: cell-based, human; settings: EBV-infected PBMC, ten to twelve days of culture
Description: Peripheral blood mononuclear cells (PBMC) were obtained from healthy donors after dextran sedimentation and centrifugation on Ficoll-Paque™ gradients as previously described by Boyum A. (Scand. J. Immunol., 1976, 5(5):9). […] When indicated, EBV-infected PBMC were simultaneously treated (single addition) with different concentrations of LTB4, i.e. 0.3, 3.0 and 30 nM, respectively. […] Cells were cultured in microplates and the clumps were counted in each well. […] NS: nonstimulated cells.

[6] = 25 ng LTB4 i.v. once a day, 12 days
[7] = LTB4 10 μg i.p. days 0, 1, 3, 5, 7, 9

CCCCC/C=C\C[C@@H](O)/C=C/C=C/C=C\[C@@H](O)CCCC(=O)O [LTB4, 5S,12R-dihydroxy-6,8,10,14 (Z,E,E,Z)-eicosatetraenoic acid]
reduction in the CMV viral load in the lungs versus placebo [1, 6]: 77% | reduction in the CMV viral load in the salivary glands versus placebo [1, 6]: 70% | CMV viral load versus placebo ([1]; infected mice): reduced | coronavirus viral load in lungs, per mouse ([2]; LTB4 5 ng/dose/mouse intranasal once a day 5 days): N.D. (below detection limit of 32 TCID50/lungs) | coronavirus viral load in lungs, per mouse ([2]; LTB4 50 ng/dose/mouse intranasal once a day 5 days): N.D. (below detection limit of 32 TCID50/lungs) | number of coronavirus particles in lungs versus placebo ([2]; infected mice): significantly reduces; also recorded: reduced | inhibition of production of EBV particles (decrease of EBNA antigen positive cells) (EBV [3]; 30 nM LTB4, B95-8 cells): 70% | inhibition of production of EBV particles (decrease of EBNA antigen positive cells) (EBV [3]; 100 nM LTB4, B95-8 cells): 85% | inhibition of formation of new EBV particles (EBV [3]; B95-8 cells, concentration not stated (summary)): > 80% | percentage of CD4+ T cell survival versus placebo (HIV (93US151); LTB4 1, 10 or 100 ng/mouse i.p. once a day, day 14 P.I.): significantly increased | HIV plasma viral loads versus placebo (HIV (93US151); LTB4 i.p. once a day, days 7 and 14 P.I.): reduced | influenza titers in the lungs versus placebo [4]: significantly decreased; also recorded: reduced | decrease of percentage of EBNA-positive cells (EBV [5]): more than 70% | inhibition of the replicative cycle of HIV-1 (p24 release) (HIV-1 strain 89.6): more than 75% | course of skin lesions (HSV-1 strain E-377; HSV-1-infected hairless mice, LTB4 i.p.): regressed from day 8; also recorded: smaller and disappeared more rapidly | Survival at day 14 (HSV-1 strain E-377; HSV-1-infected, LTB4 10 μg i.p.): 100% | Infection-associated symptoms score, Day 4 (HSV-1 strain E-377; [7]): 0 | Infection-associated symptoms score, Day 6 (HSV-1 strain E-377; [7]): 0 | Infection-associated symptoms score, Day 8 (HSV-1 strain E-377; [7]): 0 | Infection-associated symptoms score, Day 10 (HSV-1 strain E-377; [7]): 0 | Size of infected skin lesions, Day 4 (HSV-1 strain E-377; [7]): ≤ 0.5 cm | Size of infected skin lesions, Day 6 (HSV-1 strain E-377; [7]): 1-3 cm | Size of infected skin lesions, Day 8 (HSV-1 strain E-377; [7]): 1-3 cm | Size of infected skin lesions, Day 10 (HSV-1 strain E-377; [7]): ≤ 0.2 cm | lesions smaller than those of HSV-1-infected untreated Group 2 (HSV-1 strain E-377; lesions developed from days 0 to 4): ~80% | infection-associated symptoms and general status (HSV-1 strain E-377; throughout the experiment): posterior limb inflammation and skinniness were not observed | formation of clumps (EBV, strain B95-8): markedly affected the formation of clumps
